The test system of this assay is C6. Put plainly: Inhibitory activity against rat C6 Glioma cells stimulated with Fetal bovine serum; Not detectable. In kind it is functional, cell-based.
In the case of `CCCCCCCCO[C@H]1O[C@@H](CO)[C@@H](OCC(CO)(CO)COS(=O)(=O)O)[C@H](O[C@@H]2OC(C)[C@@H](O)[C@H](O)[C@@H]2O)[C@@H]1NC(C)=O` (some centres undefined), the ID50 entry is “Not detectable”.

For the compound `CCCCCCCCO[C@H]1O[C@@H](COCC(CO)(CO)COS(=O)(=O)O)[C@@H](OCC(CO)(CO)COS(=O)(=O)O)[C@H](O[C@@H]2O[C@@H](C)[C@@H](O)[C@H](O)[C@@H]2O)[C@@H]1NC(C)=O`, the ID50 entry was “Not detectable”.

Consider `CCCCCCCCOC1OC(COCC(CO)(CO)CO)C(O)C(OC2OC(C)C(O)C(O)C2O)C1NC(C)=O` (centres undefined), for which the ID50 result is “Not detectable”.

On to `CCCCCCCCO[C@H]1O[C@@H](COCC(CO)(CO)COS(=O)(=O)O)C(O)[C@H](O[C@@H]2O[C@@H](C)[C@@H](O)[C@H](O)[C@@H]2O)[C@@H]1NC(C)=O` (some centres undefined), for which the ID50 result was “Not detectable”.

The record behind these values is ChEMBL document CHEMBL1131178, “Novel disaccharide inhibitors of human glioma cell division” (1998).
